# According to ChEMBL document CHEMBL3885881, “DrugMatrix”:
# Species on record: Rattus norvegicus
# Assay: DrugMatrix - Regimen: Daily Repeat
# Assay type: toxicity, organism-based, Sprague-Dawley
# Design: regimen Daily Repeat, gender Male, age 6-8 weeks
# Details: in vivo, po, route oral GAVAGE, vehicle .5 % CMC; for BASOPHIL / EOSINOPHIL / ERYTHROCYTE COUNT / HEMATOCRIT / HEMOGLOBIN / LEUKOCYTE COUNT / LYMPHOCYTE / MEAN CORPUSCULAR HEMOGLOBIN / MEAN CORPUSCULAR HEMOGLOBIN CONCENTRATION / MEAN CORPUSCULAR VOLUME / MONOCYTE / NEUTROPHIL / PLATELET COUNT: tissue Blood; for ALANINE AMINOTRANSFERASE / ALBUMIN / ALKALINE PHOSPHATASE / ASPARTATE AMINOTRANSFERASE / BLOOD UREA NITROGEN / CHLORIDE / CHOLESTEROL / CREATINE PHOSPHOKINASE / CREATININE / GLUCOSE / PHOSPHORUS / POTASSIUM / SODIUM / TOTAL BILIRUBIN / TOTAL PROTEIN: tissue Plasma
# [1] = 20 mg/kg, 72 h, dose level Low, time 3 day
# [2] = 20 mg/kg, 120 h, dose level Low, time 5 day
# [3] = 380 mg/kg, 72 h, dose level High, time 3 day
# [4] = 380 mg/kg, 120 h, dose level High, time 5 day
compound,measurement,setting,value
CNCCCC12CCC(c3ccccc31)c1ccccc12 [MAPROTILINE],BASOPHIL,[1],0%
same,EOSINOPHIL,[1],0.33%
same,ERYTHROCYTE COUNT,[1],5.97 x10E6/uL
same,HEMATOCRIT,[1],35.97%
same,HEMOGLOBIN,[1],14.2 G/DL
same,LEUKOCYTE COUNT,[1],11.3 x10E3/uL
same,LYMPHOCYTE,[1],87.33%
same,MEAN CORPUSCULAR HEMOGLOBIN,[1],23.77 pg
same,MEAN CORPUSCULAR HEMOGLOBIN CONCENTRATION,[1],39.47 G/DL
same,MEAN CORPUSCULAR VOLUME,[1],60.2 fL
same,MONOCYTE,[1],1.67%
same,NEUTROPHIL,[1],10.67%
same,PLATELET COUNT,[1],1123 x10E3/uL
same,ALANINE AMINOTRANSFERASE,[1],39.33 u/L
same,ALBUMIN,[1],3.83 G/DL
same,ALKALINE PHOSPHATASE,[1],403 u/L
same,ASPARTATE AMINOTRANSFERASE,[1],64 u/L
same,BLOOD UREA NITROGEN,[1],12.67 mg/dL
same,CHLORIDE,[1],106.67 MEQ/L
same,CHOLESTEROL,[1],71.67 mg/dL
same,CREATINE PHOSPHOKINASE,[1],175 u/L
same,CREATININE,[1],0.67 mg/dL
same,GLUCOSE,[1],177.33 mg/dL
same,PHOSPHORUS,[1],12.37 mg/dL
same,POTASSIUM,[1],6.9 MEQ/L
same,SODIUM,[1],151.33 MEQ/L
same,TOTAL BILIRUBIN,[1],0.57 mg/dL
same,TOTAL PROTEIN,[1],6.1 G/DL
same,BASOPHIL,[2],0%
same,EOSINOPHIL,[2],1%
same,ERYTHROCYTE COUNT,[2],6.02 x10E6/uL
same,HEMATOCRIT,[2],36.33%
same,HEMOGLOBIN,[2],15.57 G/DL
same,LEUKOCYTE COUNT,[2],13.27 x10E3/uL
same,LYMPHOCYTE,[2],86.33%
same,MEAN CORPUSCULAR HEMOGLOBIN,[2],25.9 pg
same,MEAN CORPUSCULAR HEMOGLOBIN CONCENTRATION,[2],42.9 G/DL
same,MEAN CORPUSCULAR VOLUME,[2],60.4 fL
same,MONOCYTE,[2],1.33%
same,NEUTROPHIL,[2],11.33%
same,PLATELET COUNT,[2],1112.33 x10E3/uL
same,ALANINE AMINOTRANSFERASE,[2],38.67 u/L
same,ALBUMIN,[2],3.83 G/DL
same,ALKALINE PHOSPHATASE,[2],339.67 u/L
same,ASPARTATE AMINOTRANSFERASE,[2],60 u/L
same,BLOOD UREA NITROGEN,[2],14.33 mg/dL
same,CHLORIDE,[2],108.67 MEQ/L
same,CHOLESTEROL,[2],65.33 mg/dL
same,CREATINE PHOSPHOKINASE,[2],168.67 u/L
same,CREATININE,[2],0.7 mg/dL
same,GLUCOSE,[2],182.33 mg/dL
same,PHOSPHORUS,[2],12 mg/dL
same,POTASSIUM,[2],6.77 MEQ/L
same,SODIUM,[2],149 MEQ/L
same,TOTAL BILIRUBIN,[2],0.6 mg/dL
same,TOTAL PROTEIN,[2],6.27 G/DL
same,BASOPHIL,[3],0%
same,EOSINOPHIL,[3],0.33%
same,ERYTHROCYTE COUNT,[3],6.59 x10E6/uL
same,HEMATOCRIT,[3],38.93%
same,HEMOGLOBIN,[3],15.5 G/DL
same,LEUKOCYTE COUNT,[3],12 x10E3/uL
same,LYMPHOCYTE,[3],88.67%
same,MEAN CORPUSCULAR HEMOGLOBIN,[3],23.53 pg
same,MEAN CORPUSCULAR HEMOGLOBIN CONCENTRATION,[3],39.8 G/DL
same,MEAN CORPUSCULAR VOLUME,[3],59.17 fL
same,MONOCYTE,[3],2.33%
same,NEUTROPHIL,[3],8.67%
same,PLATELET COUNT,[3],1142.67 x10E3/uL
same,ALANINE AMINOTRANSFERASE,[3],38 u/L
same,ALBUMIN,[3],3.63 G/DL
same,ALKALINE PHOSPHATASE,[3],350.33 u/L
same,ASPARTATE AMINOTRANSFERASE,[3],63.67 u/L
same,BLOOD UREA NITROGEN,[3],14.33 mg/dL
same,CHLORIDE,[3],106.33 MEQ/L
same,CHOLESTEROL,[3],88.67 mg/dL
same,CREATINE PHOSPHOKINASE,[3],166.33 u/L
same,CREATININE,[3],0.5 mg/dL
same,GLUCOSE,[3],164.67 mg/dL
same,PHOSPHORUS,[3],10.83 mg/dL
same,POTASSIUM,[3],6.27 MEQ/L
same,SODIUM,[3],152.33 MEQ/L
same,TOTAL BILIRUBIN,[3],0.4 mg/dL
same,TOTAL PROTEIN,[3],5.93 G/DL
same,BASOPHIL,[4],0%
same,EOSINOPHIL,[4],1%
same,ERYTHROCYTE COUNT,[4],7.43 x10E6/uL
same,HEMATOCRIT,[4],42%
same,HEMOGLOBIN,[4],16.1 G/DL
same,LEUKOCYTE COUNT,[4],7.2 x10E3/uL
same,LYMPHOCYTE,[4],85%
same,MEAN CORPUSCULAR HEMOGLOBIN,[4],21.7 pg
same,MEAN CORPUSCULAR HEMOGLOBIN CONCENTRATION,[4],38.3 G/DL
same,MEAN CORPUSCULAR VOLUME,[4],56.5 fL
same,MONOCYTE,[4],1%
same,NEUTROPHIL,[4],13%
same,PLATELET COUNT,[4],1275 x10E3/uL
same,ALANINE AMINOTRANSFERASE,[4],81 u/L
same,ALBUMIN,[4],3.7 G/DL
same,ALKALINE PHOSPHATASE,[4],457 u/L
same,ASPARTATE AMINOTRANSFERASE,[4],158 u/L
same,BLOOD UREA NITROGEN,[4],17.5 mg/dL
same,CHLORIDE,[4],108 MEQ/L
same,CHOLESTEROL,[4],44.5 mg/dL
same,CREATINE PHOSPHOKINASE,[4],289 u/L
same,CREATININE,[4],0.65 mg/dL
same,GLUCOSE,[4],206 mg/dL
same,PHOSPHORUS,[4],12.6 mg/dL
same,POTASSIUM,[4],7.3 MEQ/L
same,SODIUM,[4],151.5 MEQ/L
same,TOTAL BILIRUBIN,[4],0.35 mg/dL
same,TOTAL PROTEIN,[4],5.95 G/DL
